Counter-ions that a name gives are not always drawn. Like-named read-outs stand apart in the source and are kept apart here.
Legend:
[1] = in vitro; conditions: for cytotoxicity at 41 h, 10 µM: human
[2] = tested on: Cryptosporidium parvum; assay: qRT-PCR assay of the growth of C. parvum in vitro in HCT-8 host cells (primary and secondary screening, EC50); format: cell-based; conditions: Cryptosporidium parvum, HCT-8; for inhibition at 10 µM: primary screening at 10 uM, read-out: Inhibition (%); for inhibition at 3.3 µM: secondary screening at 3.3 uM, read-out: % Inhibition (3.3 uM)
[3] = tested on: HCT-8 host cells (Hs18S)
[4] = primary screening at 10 uM, treated vs control

SMILES | Hs18S ΔCT ([3]; human, 41 h, 10 μM) | cytotoxicity at 41 h, 10 µM [1] [%] | inhibition at 10 µM [2] [%] | cytotoxicity at 10 µM [1] [%] | Hs18S ΔCT [3, 4] | inhibition at 3.3 µM [2] [%] | Hs18S ΔCT [3]
COC(=O)CC[C@@H](C)[C@H]1CC[C@H]2[C@@H]3CC[C@@H]4C[C@H](O)CC[C@]4(C)[C@H]3C[C@H](O)[C@]12C [METHYL DEOXYCHOLATE] | 0.66 | 36.7 | 23.4 | – | – | – | –
COC(=O)c1c(C)cc(O)cc1O [METHYL ORSELLINATE] | 0.31 | 19.6 | -34.8 | – | – | – | –
CC[C@H](C)C(=O)O[C@H]1CCC=C2C=C[C@H](C)[C@H](CC[C@@H]3C[C@@H](O)CC(=O)O3)[C@H]21 [MEVASTATIN] | 0.22 | 14.4 | 24 | – | – | – | –
NC(Cn1ccc(=O)c(O)c1)C(=O)O (stereo not drawn) [MIMOSINE] | -0.01 | -0.4 | -22 | – | – | – | –
C[C@H]1C(=O)O[C@@H]2CCN3CC=C(COC(=O)[C@](C)(O)[C@]1(C)O)[C@H]23 [MONOCROTALINE] | – | – | 12 | 9.5 | 0.14 | – | –
O=c1c(O)c(-c2ccc(O)cc2O)oc2cc(O)cc(O)c12 [MORIN] | – | – | 32.3 | -15.6 | -0.21 | – | –
O=C(O)[C@@H](O)[C@H](O)[C@H](O)[C@@H](O)C(=O)O [MUCIC ACID] | -0.19 | -13.8 | -14.3 | – | – | – | –
COc1ccc2c(c1)O[C@@H]1COc3cc(OC)c(OC)cc3[C@@H]1C2=O [MUNDOSERONE] | – | – | 13.7 | 11.4 | 0.17 | – | –
COc1c(-c2coc3cc4c(cc3c2=O)CC(O)C(C)(C)O4)ccc2c1C=CC(C)(C)O2 (stereo not drawn) [MUNDULONE] | 0.22 | 14.4 | 61.8 | – | – | -43 | –
COc1c(C)c2c(c(O)c1C/C=C(\C)CCC(=O)O)C(=O)OC2 [MYCOPHENOLIC ACID] | 1.03 | 51.1 | 44.4 | – | – | – | –
c1cncc(C2=NCCC2)c1 [MYOSMINE] | – | – | -17.6 | 4.5 | 0.07 | – | –
C=CCN1CC[C@]23c4c5ccc(O)c4O[C@H]2C(=O)CC[C@@]3(O)[C@H]1C5 [NALOXONE HYDROCHLORIDE] | – | – | 21.9 | 12.7 | 0.20 | – | –
O=C1C[C@@H](c2ccc(O)cc2)Oc2cc(O)cc(O)c21 [NARINGENIN] | – | -17.3 | 47.6 | – | -0.23 | – | –
C[C@@H]1O[C@@H](O[C@H]2[C@H](Oc3cc(O)c4c(c3)O[C@H](c3ccc(O)cc3)CC4=O)O[C@H](CO)[C@@H](O)[C@@H]2O)[C@H](O)[C@H](O)[C@H]1O [NARINGIN] | 0.16 | 10.4 | 2.06 | – | – | – | –
CC(C)=CCC/C(C)=C\CO [NEROL] | 0.43 | 25.8 | -20.6 | – | – | – | –
NC(=O)c1cccnc1 [NIACINAMIDE] | -0.05 | -3.6 | -9.59 | – | – | – | –
O=C(O)c1cccnc1 [NIACIN] | 0.08 | 5.3 | -6.7 | – | – | – | –
COc1ccc(-c2cc(=O)c3c(OC)c(OC)c(OC)c(OC)c3o2)cc1OC [NOBILETIN] | 0.26 | 16.2 | 94.6 | – | – | -25 | –

SMILES | Hs18S ΔCT ([3]; human, 41 h, 10 μM) | cytotoxicity at 41 h, 10 µM [1] [%] | inhibition at 10 µM [2] [%] | cytotoxicity at 10 µM [1] [%] | Hs18S ΔCT [3, 4] | inhibition at 3.3 µM [2] [%] | Hs18S ΔCT [3]
CCCCC[C@H](CC(=O)O)C(=O)O [NONIC ACID] | 0.06 | 3.9 | -17.1 | – | – | – | –
Cc1cc(O)c(C=O)c2c1C(=O)Oc1c(C)c(O)c3c(c1O2)C(O)OC3=O (stereo not drawn) [NORSTICTIC ACID] | -0.18 | -13.4 | -20.8 | – | – | – | –
CO[C@@H]1[C@@H](OC(N)=O)[C@@H](O)[C@H](Oc2ccc3c(O)c(NC(=O)c4ccc(O)c(CC=C(C)C)c4)c(=O)oc3c2C)OC1(C)C [NOVOBIOCIN SODIUM] | 0.10 | 6.5 | -13.6 | – | – | – | –
C=C(C)[C@H]1COc2cc3oc(=O)ccc3cc2O1 [OBLIQUIN] | – | – | 1.63 | -25.7 | -0.33 | – | –
NCC(O)c1ccc(O)cc1 (stereo not drawn) [OCTOPAMINE HYDROCHLORIDE] | -0.21 | -15.8 | 85.1 | – | – | -12 | –
CO[C@H]1C[C@H](O[C@H]2[C@H](C)[C@@H](O[C@@H]3O[C@H](C)C[C@H](N(C)C)[C@H]3O)[C@@H](C)C[C@@]3(CO3)C(=O)[C@H](C)[C@@H](O)[C@@H](C)[C@@H](C)OC(=O)[C@@H]2C)O[C@@H](C)[C@@H]1O [OLEANDOMYCIN PHOSPHATE] | 3.02 | 87.6 | 17.6 | – | – | – | –
O=C(O)c1cc(=O)[nH]c(=O)[nH]1 [OROTIC ACID] | -0.39 | -31.1 | 8.85 | – | – | – | –
Cc1cc(O)cc(O)c1C(=O)O [ORSELLINIC ACID] | – | -19.3 | 37.5 | – | -0.25 | – | –
CC(C)=CCc1c2c(c3occ(-c4ccc(O)cc4)c(=O)c3c1O)C=CC(C)(C)O2 [OSAJIN] | -1.06 | -108 | -1.77 | – | – | – | –
CCCCCCCCCCCCCCCC(=O)NCCO [PALMIDROL] | 0.05 | 3.5 | -7.35 | – | – | – | –
COc1ccc(Cc2nccc3cc(OC)c(OC)cc23)cc1OC [PAPAVERINE HYDROCHLORIDE] | – | 32.7 | 56.2 | – | – | – | 0.57
O=C1C=C2C(=CCOC2O)O1 (stereo not drawn) [PATULIN] | – | – | 91.4 | 43 | 0.81 | 10 | –
COc1ccc(-c2cc(=O)c3c(O)c(OC)c(O[C@@H]4O[C@H](CO[C@@H]5O[C@@H](C)[C@H](O)[C@@H](O)[C@H]5O)[C@@H](O)[C@H](O)[C@H]4O)cc3o2)cc1 [PECTOLINARIN] | 1.99 | 74.8 | -21 | – | – | – | –
C[C@@]12C[C@@]3(O)O[C@@H](O1)[C@]1(COC(=O)c4ccccc4)[C@H]3C[C@@]12O[C@@H]1O[C@H](CO)[C@@H](O)[C@H](O)[C@H]1O [PEONIFLORIN] | -0.11 | -7.6 | -19.9 | – | – | – | –
C=C(C)[C@@H]1CC=C(C(=O)O)CC1 [PERILLIC ACID (-)] | – | – | -16.2 | 8.9 | 0.14 | – | –
C=C(C)[C@@H]1CC=C(CO)CC1 [PERILLYL ALCOHOL] | -0.35 | -27.4 | 29.5 | – | – | – | –
OCC(O)C(O)C(O)C(O)C(O)CO (stereo not drawn) [PERSEITOL] | -0.23 | -17.1 | 11.3 | – | – | – | –

Second part, led by results:

Hs18S ΔCT ([3]; human, 41 h, 10 μM) | SMILES | cytotoxicity at 41 h, 10 µM [1] [%] | inhibition at 10 µM [2] [%] | cytotoxicity at 10 µM [1] [%] | Hs18S ΔCT [3, 4] | inhibition at 3.3 µM [2] [%] | Hs18S ΔCT [3]
-0.08 | COc1c2c(cc3occ(-c4ccc5c(c4)OCO5)c(=O)c13)OC(C)(C)C=C2 [METHYL ROBUSTONE] | -5.4 | -44.6 | – | – | – | –
-0.17 | COC(=O)C[C@H]1C(C)(C)C(=O)[C@@H]2CC3=C4CC(=O)O[C@@H](c5ccoc5)[C@]4(C)CC[C@@H]3[C@@]1(C)C2=O [MEXICANOLIDE] | -12.3 | 31.5 | – | – | – | –
0.37 | COc1c(-c2coc3cc4c(cc3c2=O)CC(OC(C)=O)C(C)(C)O4)ccc2c1C=CC(C)(C)O2 (stereo not drawn) [MUNDULONE ACETATE] | 22.6 | -3.19 | – | – | – | –
0.09 | C/C(=C\C(=O)OCCCCCCCCC(=O)O)C[C@@H]1OC[C@H](C[C@@H]2O[C@H]2[C@@H](C)[C@H](C)O)[C@@H](O)[C@H]1O [MUPIROCIN] | 5.8 | 45.6 | – | – | – | –
-0.02 | CC1=CC2C(CC1=O)C(C)=CCC2C(C)C (stereo not drawn) [MUUROLLADIE-3-ONE] | -1.7 | -7.55 | – | – | – | –
0.30 | COc1ccc2c(c1OC)C(=O)O[C@@H]2[C@H]1c2c(cc3c(c2OC)OCO3)CCN1C [NOSCAPINE HYDROCHLORIDE] | 18.9 | -51.6 | – | – | – | –
0.84 | COC1=CC(=O)C(O)=C/C1=C\C=C\c1ccccc1 [OBTUSAQUINONE] | 44.3 | 87.1 | – | – | -92 | –
-0.18 | COc1ccc(CC(=O)c2ccc(O)cc2O)cc1 [ONONETIN] | -12.9 | 8.27 | – | – | – | –
-0.12 | CCOC(=O)c1c(C)cc(O)cc1O [ORSELLINIC ACID, ETHYL ESTER] | -8.3 | 23.7 | – | – | – | –
0.65 | CC(=O)O[C@H]1C(=O)[C@@]2(C)[C@H]([C@H](OC(=O)c3ccccc3)[C@]3(O)C[C@H](OC(=O)[C@H](O)[C@@H](NC(=O)c4ccccc4)c4ccccc4)C(C)=C1C3(C)C)[C@]1(OC(C)=O)CO[C@@H]1C[C@@H]2O [PACLITAXEL] | 36.1 | 86.6 | – | – | 93 | –
0.01 | COc1ccc(C(C)=O)c(O)c1 [PAEONOL] | 0.8 | -10.4 | – | – | – | –
-0.09 | COc1cc2c(cc1OC)-c1cc3ccc(OC)c(OC)c3c[n+]1CC2 [PALMATINE CHLORIDE] | -6.1 | 9.29 | – | – | – | –
0.08 | NC[C@@H]1O[C@H](O[C@H]2[C@@H](O)[C@H](O[C@@H]3[C@@H](O)[C@H](N)C[C@H](N)[C@H]3O[C@H]3O[C@H](CO)[C@@H](O)[C@H](O)[C@H]3N)O[C@@H]2CO)[C@H](N)[C@@H](O)[C@@H]1O [PAROMOMYCIN SULFATE] | 5.5 | 19.7 | – | – | – | –
-0.31 | COc1ccc(C(C)=O)c(OC)c1 [PEONOL METHYL ETHER] | -24.3 | 18.9 | – | – | – | –
